Laboratory results reported in patent publication US20250368628A1, “METHODS AND COMPOUNDS FOR MODULATING INHERITED GENETIC DISEASES” (Design Therapeutics, Inc., priority 2022, published 2025).

System: Myotonic Dystrophy 1 affected patient fibroblasts (Coriel GM04602; 1600 CTG repeats)
Assay: DM1 foci reduction assay (EC50 assay; CAG10-Cy3 FISH, foci per nucleus)
Format: cell-based
Details: Homo sapiens, Fibroblast; DM1 patient fibroblasts, 48 h treatment, foci per nucleus; read-out: DM1 EC50, 48 h
Protocol: DM1 Foci Reduction Assay Methods
Myotonic Dystrophy 1 affected patient fibroblasts (Coriel GM04602; 1600 CTG repeats) and wild type fibroblasts (Coriell GM07492; control line) were cultured separately in Gibco DMEM (1×)+4.5 g/L D-Glucose+L-Glutamine+[…] Sodium Pyruvate, supplemented with 10% FBS and 1× Pen/Strep. Cells were maintained in an incubator at 37° C. and 5% CO2 with media refreshed every 48-72 hours.
At 90-95% confluency, both cell lines were harvested using Trypl-E then pelleted at 500×g for 5 minutes and were resuspended in fresh media. DM1 fibroblasts were seeded in Agilent 96 well black plates at a density of 5,000 cells/well in 200 μL media; and 8 wells were reserved for control fibroblasts. Plates were returned to incubator for 24 hours at 37° C. and 5% CO2.
Compounds were diluted from 10 mM stock to 1 mM in DMSO and then diluted once more to 6 μM (2× concentration) in media. Media was removed from all plates and cells were replenished with 100 μL media. Cells were treated in 8-point dose response, 1:3 fold dilution, 3 μM top dose via addition of 100 μL of 6 μM (2× concentration) compound to the 100 μL media with cells. Plates were returned to incubator for 48 hours at 37° C. and 5% CO2.
Following treatment, compounds were removed, and plates were washed with PBS, then cells were fixed in 75 μL 4% PFA solution for 20 minutes at room temperature. Plates were washed twice with PBS and twice with cold 70% ethanol before permeabilization with 250 μL cold 70% ethanol for 24-72 hours at −20° C.
After permeabilization, plates were washed once with a 30% formamide and 2×SSC buffer and rehydrated in that buffer for 15 minutes at room temperature. Cells were incubated overnight at 37° C. in 75 μL of a hybridization solution containing 30% formamide, 2×SSC, 25 mg/mL dextran sulfate, 2.5 mg/mL BSA, 0.2 μg/mL Herring sperm DNA, 2 mM vanadyl-ribonucleoside complex, and 5 nM CAG10-Cy3 probe.
Plates were washed once with 30% formamide in 2×SSC buffer, then twice with the buffer for 30 minutes at 37° C., 300 RPM in an incubating plate shaker. Cells were stained with 75 μL of 2.5 μg/mL DAPI in PBS for 5 minutes at room temperature. Plates were then washed twice with PBS and stored in 250 μL PBS. Plates were sealed with adhesive foil and wiped down with 70% ethanol.
Cells were imaged on a Cytation5 with a 20× objective sampling from 4 areas of each well. Nuclei were captured under DAPI channel and foci under RFP channel. Plates were analyzed on an average foci per nucleus per well basis.

**Q.** For `CCN(CC)CCCC[C@H](NC(=O)C(C)C)C(=O)NCCOCCOCCOCCOCCOCCNC(=O)CCNC(=O)c1nc(NC(=O)c2cc(NC(=O)CCNC(=O)c3nc(NC(=O)CCCNC(=O)c4cc(NC(=O)c5nc(NC(=O)CCNC(=O)c6cc(NC(=O)c7nccn7C)cn6C)cn5C)cn4C)cn3C)cn2C)cn1C` [Compound B-89], which EC50 is on record?
**A.** > 1000 nM

**Q.** How did the EC50 turn out when `CCN(CC)CCCC[C@H](NC(=O)c1ccccc1)C(=O)NCCOCCOCCOCCOCCOCCNC(=O)CCNC(=O)c1nc(NC(=O)c2cc(NC(=O)CCNC(=O)c3nc(NC(=O)CCCNC(=O)c4cc(NC(=O)c5nc(NC(=O)CCNC(=O)c6cc(NC(=O)c7nccn7C)cn6C)cn5C)cn4C)cn3C)cn2C)cn1C` [Compound B-91] was run?
**A.** 500 to 1000 nM

**Q.** Which EC50 does the source give for `CCN(CC)CCCC[C@H](NC(=O)c1ccncc1)C(=O)NCCOCCOCCOCCOCCOCCNC(=O)CCNC(=O)c1nc(NC(=O)c2cc(NC(=O)CCNC(=O)c3nc(NC(=O)CCCNC(=O)c4cc(NC(=O)c5nc(NC(=O)CCNC(=O)c6cc(NC(=O)c7nccn7C)cn6C)cn5C)cn4C)cn3C)cn2C)cn1C` [Compound B-93] here?
**A.** > 1000 nM

**Q.** Which EC50 does the source give for `CCN(CC)CCCC[C@H](NC(=O)C1CCN(C)CC1)C(=O)NCCOCCOCCOCCOCCOCCNC(=O)CCNC(=O)c1nc(NC(=O)c2cc(NC(=O)CCNC(=O)c3nc(NC(=O)CCCNC(=O)c4cc(NC(=O)c5nc(NC(=O)CCNC(=O)c6cc(NC(=O)c7nccn7C)cn6C)cn5C)cn4C)cn3C)cn2C)cn1C` [Compound B-96] here?
**A.** 100 to 500 nM

**Q.** With `CCN(CC)CCCC[C@@H](NC(C)=O)C(=O)NCCOCCOCCNC(=O)CCNC(=O)c1nc(NC(=O)CCNC(=O)c2cc(NC(=O)c3nc(NC(=O)CCCNC(=O)c4cc(NC(=O)c5nc(NC(=O)CCNC(=O)c6cc(NC(C)c7nccn7C)cn6C)cn5C)cn4C)cn3C)cn2C)cn1C` (stereo partly shown) [Compound B-97] as the compound, how does the EC50 read?
**A.** 100 to 500 nM

**Q.** For `CCN(CC)CCCC[C@@H](NC(C)=O)C(=O)NCCNC(=O)CCNC(=O)c1nc(NC(=O)CCNC(=O)c2cc(NC(=O)c3nc(NC(=O)CCCNC(=O)c4cc(NC(=O)c5nc(NC(=O)CCNC(=O)c6cc(NC(C)c7nccn7C)cn6C)cn5C)cn4C)cn3C)cn2C)cn1C` (stereo partly shown) [Compound B-98], which EC50 is on record?
**A.** > 1000 nM

**Q.** Which EC50 does the source give for `CCN(CC)CCCC[C@@H](NC(=O)C1CCNCC1)C(=O)NCCOCCOCCOCCOCCOCCNC(=O)CCNC(=O)c1nc(NC(=O)c2cc(NC(=O)CCNC(=O)c3nc(NC(=O)CCCNC(=O)c4cc(NC(=O)c5nc(NC(=O)CCNC(=O)c6cc(NC(=O)c7nccn7C)cn6C)cn5C)cn4C)cn3C)cn2C)cn1C` [Compound B-101] here?
**A.** > 1000 nM

**Q.** `CCN(CC)CCCC[C@@H](NC(C)=O)C(=O)NCCOCCOCCNC(=O)CCNC(=O)c1nc(NC(=O)c2cc(NC(=O)CCNC(=O)c3nc(NC(=O)CCCNC(=O)c4cc(NC(=O)c5nc(NC(=O)CCNC(=O)c6cc(NC(=O)c7nccn7C)cn6C)cn5C)cn4C)cn3C)cn2C)cn1C` [Compound B-102] was tested. Which EC50 did it give?
**A.** 500 to 1000 nM

**Q.** `CCN(CC)CCCC[C@@H](NC(C)=O)C(=O)NCCNC(=O)CCNC(=O)c1nc(NC(=O)c2cc(NC(=O)CCNC(=O)c3nc(NC(=O)CCCNC(=O)c4cc(NC(=O)c5nc(NC(=O)CCNC(=O)c6cc(NC(=O)c7nccn7C)cn6C)cn5C)cn4C)cn3C)cn2C)cn1C` [Compound B-103] was tested. Which EC50 did it give?
**A.** > 1000 nM

**Q.** For `CCCN(CCC)C(=O)c1nc(NC(=O)c2cc(NC(=O)CCNC(=O)c3nc(NC(=O)CCCNC(=O)c4cc(NC(=O)c5nc(NC(=O)CCNC(=O)c6cc(NC(=O)c7nccn7C)cn6C)cn5C)cn4C)cn3C)cn2C)cn1C` [Compound B-104], which EC50 is on record?
**A.** > 1000 nM

**Q.** With `Cn1cc(NC(=O)c2nc(NC(=O)CCNC(=O)c3cc(NC(=O)c4nccn4C)cn3C)cn2C)cc1C(=O)NCCCC(=O)Nc1cn(C)c(C(=O)NCCC(=O)Nc2cc(C(=O)Nc3cn(C)c(C(=O)N4CCC(N5CCNCC5)CC4)n3)n(C)c2)n1` [Compound B-106] as the compound, how does the EC50 read?
**A.** > 1000 nM

**Q.** For `Cn1cc(NC(=O)c2nc(NC(=O)CCNC(=O)c3cc(NC(=O)c4nccn4C)cn3C)cn2C)cc1C(=O)NCCCC(=O)Nc1cn(C)c(C(=O)NCCC(=O)Nc2cc(C(=O)Nc3cn(C)c(C(=O)NCCC(=O)NCC#N)n3)n(C)c2)n1` [Compound B-112], which EC50 is on record?
**A.** 500 to 1000 nM

**Q.** Which EC50 does the source give for `Cn1cc(NC(=O)c2nc(NC(=O)CCNC(=O)c3cc(NC(=O)c4nccn4C)cn3C)cn2C)cc1C(=O)NCCCC(=O)Nc1cn(C)c(C(=O)NCCC(=O)Nc2cc(C(=O)Nc3cn(C)c(C(=O)NCCC(=O)N4CCN(CC5CCNCC5)CC4)n3)n(C)c2)n1` [Compound B-114] here?
**A.** 500 to 1000 nM

**Q.** `CN1CCC(CN2CCN(C(=O)CCNC(=O)c3nc(NC(=O)c4cc(NC(=O)CCNC(=O)c5nc(NC(=O)CCCNC(=O)c6cc(NC(=O)c7nc(NC(=O)CCNC(=O)c8cc(NC(=O)c9nccn9C)cn8C)cn7C)cn6C)cn5C)cn4C)cn3C)CC2)CC1` [Compound B-116] was tested. Which EC50 did it give?
**A.** > 1000 nM

**Q.** With `CN1CCN(CC2CCN(C(=O)CCNC(=O)c3nc(NC(=O)c4cc(NC(=O)CCNC(=O)c5nc(NC(=O)CCCNC(=O)c6cc(NC(=O)c7nc(NC(=O)CCNC(=O)c8cc(NC(=O)c9nccn9C)cn8C)cn7C)cn6C)cn5C)cn4C)cn3C)CC2)CC1` [Compound B-129] as the compound, how does the EC50 read?
**A.** 100 to 500 nM

**Q.** For `CC(=O)N1CCN(C2CCN(C(=O)CCNC(=O)c3nc(NC(=O)c4cc(NC(=O)CCNC(=O)c5nc(NC(=O)CCCNC(=O)c6cc(NC(=O)c7nc(NC(=O)CCNC(=O)c8cc(NC(=O)c9nccn9C)cn8C)cn7C)cn6C)cn5C)cn4C)cn3C)CC2)CC1` [Compound B-130], which EC50 is on record?
**A.** 100 to 500 nM

**Q.** How did the EC50 turn out when `CN(C)c1ccc(C#CC#CCNC(=O)CCNC(=O)c2nc(NC(=O)c3cc(NC(=O)CCNC(=O)c4nc(NC(=O)CCCNC(=O)c5cc(NC(=O)c6nc(NC(=O)CCNC(=O)c7cc(NC(=O)c8nccn8C)cn7C)cn6C)cn5C)cn4C)cn3C)cn2C)cc1` [Compound B-133] was run?
**A.** > 1000 nM

**Q.** Which EC50 does the source give for `Cn1cc(NC(=O)c2nc(NC(=O)CCNC(=O)c3cc(NC(=O)c4nccn4C)cn3C)cn2C)cc1C(=O)NCCCC(=O)Nc1cn(C)c(C(=O)NCCC(=O)Nc2cc(C(=O)Nc3cn(C)c(C(=O)NCCC(=O)NCC#CC#CC4CCNCC4)n3)n(C)c2)n1` [Compound B-137, 1-methyl-4-(3-{[1-methyl-4-(1-methylimidazole-2-amido)pyrrol-2-yl]formamido}propanamido)-N-(1-methyl-5-{[3-({1-methyl-2-[(2-{[1-methyl-5-({1-methyl-2-[(2-{[5-(piperidin-4-yl)penta-2,4-diyn-1-yl]carbamoyl}ethyl)carbamoyl]imidazol-4-yl}carbamoyl)pyrrol-3-yl]carbamoyl}ethyl)carbamoyl]imidazol-4-yl}carbamoyl)propyl]carbamoyl}pyrrol-3-yl)imidazole-2-carboxamide] here?
**A.** > 1000 nM

**Q.** Which EC50 does the source give for `CN1CCC(C#CC#CCNC(=O)CCNC(=O)c2nc(NC(=O)c3cc(NC(=O)CCNC(=O)c4nc(NC(=O)CCCNC(=O)c5cc(NC(=O)c6nc(NC(=O)CCNC(=O)c7cc(NC(=O)c8nccn8C)cn7C)cn6C)cn5C)cn4C)cn3C)cn2C)CC1` [Compound B-138] here?
**A.** > 1000 nM

**Q.** For `CN(C)CC#CC#Cc1ccc(NC(=O)CCNC(=O)c2nc(NC(=O)c3cc(NC(=O)CCNC(=O)c4nc(NC(=O)CCCNC(=O)c5cc(NC(=O)c6nc(NC(=O)CCNC(=O)c7cc(NC(=O)c8nccn8C)cn7C)cn6C)cn5C)cn4C)cn3C)cn2C)cc1` [Compound B-139], which EC50 is on record?
**A.** > 1000 nM

**Q.** For `Cn1cc(NC(=O)c2nc(NC(=O)CCNC(=O)c3cc(NC(=O)c4nccn4C)cn3C)cn2C)cc1C(=O)NCCCC(=O)Nc1cn(C)c(C(=O)NCCC(=O)Nc2cc(C(=O)Nc3cn(C)c(C(=O)NCCC(=O)NC4CCNCC4)n3)n(C)c2)n1` [Compound B-140], which EC50 is on record?
**A.** > 1000 nM

**Q.** `CC(=O)N1CCC(NC(=O)CCNC(=O)c2nc(NC(=O)c3cc(NC(=O)CCNC(=O)c4nc(NC(=O)CCCNC(=O)c5cc(NC(=O)c6nc(NC(=O)CCNC(=O)c7cc(NC(=O)c8nccn8C)cn7C)cn6C)cn5C)cn4C)cn3C)cn2C)CC1` [Compound B-141] was tested. Which EC50 did it give?
**A.** > 1000 nM

**Q.** How did the EC50 turn out when `CCN(CC)CCCC[C@@H](NC(C)=O)C(=O)Nc1ccc(OCCOCCOCCOCCOCCOCCOCCNC(=O)CCNC(=O)c2nc(NC(=O)c3cc(NC(=O)CCNC(=O)c4nc(NC(=O)CCCNC(=O)c5cc(NC(=O)c6nc(NC(=O)CCNC(=O)c7cc(NC(=O)c8nccn8C)cn7C)cn6C)cn5C)cn4C)cn3C)cn2C)cc1` [Compound B-145] was run?
**A.** 500 to 1000 nM

**Q.** For `Cn1cc(NC(=O)c2nc(NC(=O)CCNC(=O)c3cc(NC(=O)c4nccn4C)cn3C)cn2C)cc1C(=O)NCCCC(=O)Nc1cn(C)c(C(=O)NCCC(=O)Nc2cc(C(=O)Nc3cn(C)c(C(=O)NCCC(=O)NCCOCCN4CCN(C5CCN(c6ccc(N)cc6)CC5)CC4)n3)n(C)c2)n1` [Compound B-155], which EC50 is on record?
**A.** > 1000 nM

**Q.** For `Cn1cc(NC(=O)c2nc(NC(=O)CCNC(=O)c3cc(NC(=O)c4nccn4C)cn3C)cn2C)cc1C(=O)NCCCC(=O)Nc1cn(C)c(C(=O)NCCC(=O)Nc2cc(C(=O)Nc3cn(C)c(C(=O)NCCC(=O)N4CCN(C5CCN(c6ccc(N)cc6)CC5)CC4)n3)n(C)c2)n1` [Compound B-156], which EC50 is on record?
**A.** > 1000 nM
